Experimental data as given in US10689363B2 (Merck Patent GmbH, priority 2017, dated 2020).
≈ marks a conversion by molar mass, not a printed value. Where two headings read alike, the source gives them in different places.

Tests used:
Type in all cases: physicochemical
[1] = Water Vapour Sorption isotherm (25° C., DVS-Intrinsic), hygroscopicity acc. to Ph. Eur. 5.11.; settings: for water uptake levels: 25° C.
Protocol: (based on multiple measurements on different samples of form A2). […] DSC scan of form A2 was acquired on a Mettler-Toledo DSC 821 with a heating rate of 50 K/min, using nitrogen purge gas at 50 mL/min. TGA scan of form A2 was acquired on a Mettler-Toledo TGA 851 with a heating rate of 5 K/min, using nitrogen purge gas at 50 mL/min. […] Eur. Criteria (section 5.11.). Water Vapour Sorption isotherm was acquired on a DVS-Intrinsic system from SMS.
(based on multiple measurements on different samples of form NF5). […] Eur. Criteria (section 5.11.). […] Water Vapour Sorption isotherm was acquired on a DVS-Intrinsic system from SMS.
(based on multiple measurements on one sample of form NF6). […] Eur. Criteria (section 5.11.). […] Water Vapour Sorption isotherm was acquired on a DVS-Intrinsic system from SMS.
Eur. Criteria (section 5.11.). […] Water Vapour Sorption isotherm was acquired on a DVS-Intrinsic system from SMS.
Other physical properties of form Fumarate-NF1 include the following: ^1H-NMR spectroscopic data reveal a API:Fumarate molar ratio of 1:1. […] DSC scan of form Fumarate-NF1 was acquired on a Mettler-Toledo DSC 821 with a heating rate of 5 K/min, using nitrogen purge gas at 50 mL/min. TGA scan of form Fumarate-NF1 was acquired on a Mettler-Toledo TGA 851 with a heating rate of 5 K/min, using nitrogen purge gas at 50 mL/min. […] Eur. Criteria (section 5.11.). […] Water Vapour Sorption isotherm was acquired on a DVS-Intrinsic system from SMS.
Other physical properties of form Maleate-NF1 include the following: ^1H-NMR spectroscopic data reveal a API:Maleate molar ratio of 1:1. […] DSC scan of form Maleate-NF1 was acquired on a Mettler-Toledo DSC 821 with a heating rate of 5 K/min, using nitrogen purge gas at 50 mL/min. TGA scan of form Maleate-NF1 was acquired on a Mettler-Toledo TGA 851 with a heating rate of 5 K/min, using nitrogen purge gas at 50 mL/min. […] Form Maleate-NF1 can be classified as non-hygroscopic according to Ph. Eur. Criteria (section 5.11.). […] Water Vapour Sorption isotherm was acquired on a DVS-Intrinsic system from SMS.
Other physical properties of form Citrate-NF1 include the following: ^1H-NMR spectroscopic data reveal a API:Citrate molar ratio of 1:1. […] DSC scan of form Citrate-NF1 was acquired on a Mettler-Toledo DSC 821 with a heating rate of 5 K/min, using nitrogen purge gas at 50 mL/min. TGA scan of form Citrate-NF1 was acquired on a Mettler-Toledo TGA 851 with a heating rate of 5 K/min, using nitrogen purge gas at 50 mL/min. […] Eur. Criteria (section 5.11.). […] Water Vapour Sorption isotherm was acquired on a DVS-Intrinsic system from SMS.
(based on multiple measurements on different samples of form A1). […] DSC scan of form A1 was acquired on a Mettler-Toledo DSC 821 with a heating rate of 50 K/min, using nitrogen purge gas at 50 mL/min. TGA scan of form A1 was acquired on a Mettler-Toledo TGA 851 with a heating rate of 5 K/min, using nitrogen purge gas at 50 mL/min. […] Eur. Criteria (section 5.11.). […] Water Vapour Sorption isotherm was acquired on a DVS-Intrinsic system from SMS. […] Dissolution level of form A1 in Fasted-State Simulated Intestinal Fluid [FaSSIF, pH 6.5] at 37° C. was determined to be approx. 36 μg/mL (after 2 h), and dissolution level of form A1 in Fed-State Simulated Intestinal Fluid [FeSSIF, pH 5.0] at 37° C. was determined to be approx. 214 μg/mL (after 2 h), respectively (see example 11).
All forms were characterized according to standard methods which are found in e.g. Rolf Hilfiker, ‘Polymorphism in the Pharmaceutical Industry’. Wiley-VCH. Weinheim 2006 (Chapter 6: X-Ray Diffraction. Chapter 6: Vibrational Spectroscopy. Chapter 3: Thermal Analysis, Chapter 9: Water Vapour Sorption, and references therein); and H. G. Brittain, ‘Polymorphism in Pharmaceutical Solids. Vol. 95. Marcel Dekker Inc., New York 1999 (Chapter 6 and references therein).

[2] = Mini-dissolution in FaSSIF / FeSSIF medium at 37° C.; settings: for Dissolution levels in FaSSIF pH 6.5: FaSSIF pH 6.5, 37° C.; for Dissolution levels in FeSSIF pH 5.0: FeSSIF pH 5.0, 37° C.
Protocol: All dispersions were agitated at 37° C. for up to 2 hours. At defined time intervals (30 min. 60 min, 120 min), sample aliquots of homogeneous dispersions were withdrawn by a syringe, and filtrated via syringe filter adapters (PTFE, 0.45 μm).

[3] = Thermodynamic solubility (24 h, 37° C.) in FaSSIF medium or USP Phosphate buffer; settings: for solubility thermodynamic at 24 h: 37 °C, thermodynamic from solid
[4] = 120 min (2 h), listed as form Malonate-NF1
[5] = 120 min (2 h), listed as form Oxalate-NF1
[6] = 120 min (2 h), listed as form Succinate-NF1

| Structure (SMILES) | hygroscopicity classification according to Ph. Eur. Criteria (section 5.11.) [1] | Dissolution levels in FaSSIF pH 6.5 ([2]; 30 min) | Dissolution levels in FaSSIF pH 6.5 ([2]; 60 min) | Dissolution levels in FaSSIF pH 6.5 ([2]; 120 min (2 h)) | dissolution levels (2 h), factor higher vs form A1 ([2]; FaSSIF) | Dissolution levels in FeSSIF pH 5.0 ([2]; 30 min) | Dissolution levels in FeSSIF pH 5.0 ([2]; 60 min) | Dissolution levels in FeSSIF pH 5.0 ([2]; 120 min (2 h)) | dissolution levels (2 h), factor higher vs form A1 ([2]; FeSSIF) | also measured |
| --- | --- | --- | --- | --- | --- | --- | --- | --- | --- | --- |
| C=CC(=O)N1CCC(CNc2ncnc(N)c2-c2ccc(Oc3ccccc3)cc2)CC1.O=C(O)CCC(=O)O [Citrate-NF1, 1-(4-{[6-Amino-5-(4-phenoxy-phenyl)-pyrimidin-4-ylamino]-methyl}-piperidin-1-yl)-propenone] | Slightly hygroscopic | – | – | – | – | – | – | – | – | hygroscopicity classification according to Ph. Eur. Criteria (section 5.11.) ([1]; listed as form Citrate-NF1): slightly hygroscopic; water uptake levels ([1]; relative humidity range 0-80% rh, listed as form Citrate-NF1): < 2.0 wt % |
| C=CC(=O)N1CCC(CNc2ncnc(N)c2-c2ccc(Oc3ccccc3)cc2)CC1.O=C(O)CCC(=O)O [Fumarate-NF1, 1-(4-{[6-Amino-5-(4-phenoxy-phenyl)-pyrimidin-4-ylamino]-methyl}-piperidin-1-yl)-propenone] | Slightly hygroscopic | – | – | – | – | – | – | – | – | hygroscopicity classification according to Ph. Eur. Criteria (section 5.11.) ([1]; listed as form Fumarate-NF1): slightly hygroscopic; water uptake levels ([1]; relative humidity range 0-80% rh, listed as form Fumarate-NF1): < 0.5 wt % |
| C=CC(=O)N1CCC(CNc2ncnc(N)c2-c2ccc(Oc3ccccc3)cc2)CC1.O=C(O)CCC(=O)O [Maleate-NF1, 1-(4-{[6-Amino-5-(4-phenoxy-phenyl)-pyrimidin-4-ylamino]-methyl}-piperidin-1-yl)-propenone] | Non-hygroscopic | – | – | – | – | – | – | – | – | hygroscopicity classification according to Ph. Eur. Criteria (section 5.11.) ([1]; listed as form Maleate-NF1): non-hygroscopic; water uptake levels ([1]; relative humidity range 0-80% rh, listed as form Maleate-NF1): < 0.5 wt % |
| C=CC(=O)N1CCC(CNc2ncnc(N)c2-c2ccc(Oc3ccccc3)cc2)CC1.O=C(O)CCC(=O)O [Malonate-NF1, 1-(4-{[6-Amino-5-(4-phenoxy-phenyl)-pyrimidin-4-ylamino]-methyl}-piperidin-1-yl)-propenone] | Slightly hygroscopic | 47 μg/mL | 53 μg/mL | 75 μg/mL | ~2 | 651 μg/mL | 694 μg/mL | 740 μg/mL | ~3.5 | Dissolution levels in FaSSIF pH 6.5 [2, 4]: approx. 75 μg/mL; Dissolution levels in FeSSIF pH 5.0 [2, 4]: approx. 740 μg/mL; hygroscopicity classification according to Ph. Eur. Criteria (section 5.11.) ([1]; listed as form Malonate-NF1): slightly hygroscopic; water uptake levels ([1]; relative humidity range 0-80% rh, listed as form Malonate-NF1): < 0.5 wt % |
| C=CC(=O)N1CCC(CNc2ncnc(N)c2-c2ccc(Oc3ccccc3)cc2)CC1 [form A2, 1-(4-{[6-Amino-5-(4-phenoxy-phenyl)-pyrimidin-4-ylamino]-methyl}-piperidin-1-yl)-propenone] | slightly hygroscopic | – | – | – | – | – | – | – | – | hygroscopicity classification according to Ph. Eur. Criteria (section 5.11.) ([1]; listed as A2): Slightly hygroscopic; water uptake levels ([1]; relative humidity range 0-98% rh): ≤ 1 wt %; water uptake levels ([1]; relative humidity range 90-98% rh): ≤ 2 wt %; thermodynamic solubility compared to form A1 (in words) [3]: higher; thermodynamic solubility, factor higher vs form A1 ([3]; FaSSIF): ~1.5; solubility thermodynamic at 24 h ([3]; FaSSIF medium, pH 6.5, fassif, FaSSIF pH 6.5, 37° C., read-out: Thermodynamic solubility FaSSIF pH 6.5): ~33 µg/mL (≈ 76.8 µM); thermodynamic solubility, factor higher vs form A1 ([3]; PBS buffer pH 7.4): ~2; solubility thermodynamic at 24 h ([3]; USP phosphate buffer, pH 7.4, aqueous buffer, USP Phosphate buffer pH 7.4, 37° C., read-out: Thermodynamic solubility PBS buffer 7.4): ~27 µg/mL (≈ 62.9 µM) |

More lines, main results first:

| hygroscopicity classification according to Ph. Eur. Criteria (section 5.11.) [1] | Dissolution levels in FaSSIF pH 6.5 ([2]; 30 min) | Dissolution levels in FaSSIF pH 6.5 ([2]; 60 min) | Dissolution levels in FaSSIF pH 6.5 ([2]; 120 min (2 h)) | dissolution levels (2 h), factor higher vs form A1 ([2]; FaSSIF) | Dissolution levels in FeSSIF pH 5.0 ([2]; 30 min) | Dissolution levels in FeSSIF pH 5.0 ([2]; 60 min) | Dissolution levels in FeSSIF pH 5.0 ([2]; 120 min (2 h)) | dissolution levels (2 h), factor higher vs form A1 ([2]; FeSSIF) | Structure (SMILES) | also measured |
| --- | --- | --- | --- | --- | --- | --- | --- | --- | --- | --- |
| Slightly hygroscopic | 50 μg/mL | 54 μg/mL | 58 μg/mL | ~1.5 | 600 μg/mL | 700 μg/mL | 740 μg/mL | ~3.5 | C=CC(=O)N1CCC(CNc2ncnc(N)c2-c2ccc(Oc3ccccc3)cc2)CC1.O=C(O)CCC(=O)O [Oxalate-NF1, 1-(4-{[6-Amino-5-(4-phenoxy-phenyl)-pyrimidin-4-ylamino]-methyl}-piperidin-1-yl)-propenone] | Dissolution levels in FaSSIF pH 6.5 [2, 5]: approx. 58 μg/mL; Dissolution levels in FeSSIF pH 5.0 [2, 5]: approx. 740 μg/mL; hygroscopicity classification according to Ph. Eur. Criteria (section 5.11.) ([1]; listed as form Oxalate-NF1): slightly hygroscopic; water uptake levels ([1]; relative humidity range 0-80% rh, listed as form Oxalate-NF1): < 1.0 wt % |
| Slightly hygroscopic | 92 μg/mL | 95 μg/mL | 100 μg/mL | ~3 | 625 μg/mL | 708 μg/mL | 743 μg/mL | ~3.5 | C=CC(=O)N1CCC(CNc2ncnc(N)c2-c2ccc(Oc3ccccc3)cc2)CC1.O=C(O)CCC(=O)O [Succinate-NF1, 1-(4-{[6-Amino-5-(4-phenoxy-phenyl)-pyrimidin-4-ylamino]-methyl}-piperidin-1-yl)-propenone] | Dissolution levels in FaSSIF pH 6.5 [2, 6]: approx. 100 μg/mL; Dissolution levels in FeSSIF pH 5.0 [2, 6]: approx. 743 μg/mL; hygroscopicity classification according to Ph. Eur. Criteria (section 5.11.) ([1]; listed as form Succinate-NF1): slightly hygroscopic; water uptake levels ([1]; relative humidity range 0-80% rh, listed as form Succinate-NF1): ≤ 2.0 wt % |
